IC50 data for 32 compounds are collected here from US20250011311A1, “AMIDO HETEROAROMATIC COMPOUNDS” (AstraZeneca AB, priority 2022, published 2025).

Bounds are passed on as bounds.

over expressed HSD17β9 in HEK293S cells, sequence (Q92781 whole entry): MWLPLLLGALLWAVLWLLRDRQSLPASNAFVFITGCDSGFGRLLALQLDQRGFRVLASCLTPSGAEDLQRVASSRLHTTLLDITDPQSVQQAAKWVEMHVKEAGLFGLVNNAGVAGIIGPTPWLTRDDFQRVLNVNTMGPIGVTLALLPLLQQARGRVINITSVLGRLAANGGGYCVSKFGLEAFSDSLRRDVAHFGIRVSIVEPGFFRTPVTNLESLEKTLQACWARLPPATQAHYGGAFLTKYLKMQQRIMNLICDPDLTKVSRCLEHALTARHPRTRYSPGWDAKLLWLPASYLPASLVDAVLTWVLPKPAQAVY

In this experiment the target is over expressed HSD17β9 in HEK293S cells (Homo sapiens (Human), UniProt Q92781). The experiment can be described thus: In Vitro 17bHSD9 Cell Assay. It counts as cell-based. To be noted: HEK293S cells over expressing HSD17β9; retinol to retinal conversion, 18 h, LC-MS/MS; read-out: 17bHSD9 Cell assay IC50. The method in brief:
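HEK293S cells overexpressing HSD17β9 were plated at 10K cells/well in DMEM + 10% FBS and cultured 18 h. Retinol-to-retinal conversion in media was quantified by LC-MS/MS (MRM) as retinal/(retinal + retinol). IC50 was fitted after normalisation to DMSO and full inhibition by a reference inhibitor.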
The term IC50 denotes the concentration that gives 50% inhibition. As to `O=C(c1noc(-c2cc(F)c(F)c(O)c2F)n1)N1CC(Oc2ccccc2)C1` [Example 2, (3-Phenoxyazetidin-1-yl)(5-(2,4,5-trifluoro-3-hydroxyphenyl)-1,2,4-oxadiazol-3-yl)methanone], the IC50 is greater than 50 µM.
As for `O=C(c1noc(-c2cc(C(F)(F)F)[nH]c(=O)c2)n1)N1CCC(c2ccccc2)C1` (centres unmarked) [Example 9, 4-(3-(3-Phenylpyrrolidine-1-carbonyl)-1,2,4-oxadiazol-5-yl)-6-(trifluoromethyl)pyridin-2(1H)-one], the figure is 24.9 µM.
For the compound `N#Cc1c(C(=O)N2CCN(CCCOc3ccc(F)cc3)CC2)noc1-c1cc(F)c(F)c(O)c1F` [Example 14, 3-(4-(3-(4-Fluorophenoxy)propyl)piperazine-1-carbonyl)-5-(2,4,5-trifluoro-3-hydroxyphenyl)isoxazole-4-carbonitrile], the IC50 is greater than 50 µM.
As for `COc1cccc(N2CCN(C(=O)c3noc(-c4cc(F)c(F)c(O)c4F)c3C#N)CC2)c1` [Example 16, 3-(4-(3-Methoxyphenyl)piperazine-1-carbonyl)-5-(2,4,5-trifluoro-3-hydroxyphenyl)isoxazole-4-carbonitrile], the figure is greater than 50 µM.
Then `N#Cc1c(C(=O)N2Cc3ccc(F)cc3C2)noc1-c1cc(F)c(F)c(O)c1F` [Example 18, 3-(5-Fluoroisoindoline-2-carbonyl)-5-(2,4,5-trifluoro-3-hydroxyphenyl)isoxazole-4-carbonitrile], with 6.2 µM.
Then `C[C@@H]1CN(C(=O)c2noc(-c3cc(F)c(F)c(O)c3F)c2C#N)C[C@H](C)O1` [Example 22, 3-((2R,6S)-2,6-Dimethylmorpholine-4-carbonyl)-5-(2,4,5-trifluoro-3-hydroxyphenyl)isoxazole-4-carbonitrile], with greater than 50 µM.
On to `N#Cc1ccc2c(c1)CN(C(=O)c1noc(-c3cc(F)c(F)c(O)c3F)c1C#N)CC2` [Example 29, 3-(7-Cyano-1,2,3,4-tetrahydroisoquinoline-2-carbonyl)-5-(2,4,5-trifluoro-3-hydroxyphenyl)isoxazole-4-carbonitrile], for which the IC50 was 16.3 µM.
As for `N#Cc1cccc2c1CCN(C(=O)c1noc(-c3c(F)c(O)c(F)c(F)c3Br)n1)C2` [Example 30, 2-(5-(2-Bromo-3,4,6-trifluoro-5-hydroxyphenyl)-1,2,4-oxadiazole-3-carbonyl)-1,2,3,4-tetrahydroisoquinoline-5-carbonitrile], the figure is 15.8 µM.
Then `N#Cc1ccc2c(c1)CCN(C(=O)c1noc(-c3cc(F)c(F)c(O)c3F)n1)C2` [Example 31, 2-(5-(2,4,5-Trifluoro-3-hydroxyphenyl)-1,2,4-oxadiazole-3-carbonyl)-1,2,3,4-tetrahydroisoquinoline-6-carbonitrile], with 30 µM.
Then `CC1(C)CN(C(=O)c2noc(-c3cc(F)c(F)c(O)c3F)n2)CC(C)(C)O1` [Example 32, (2,2,6,6-Tetramethylmorpholino)(5-(2,4,5-trifluoro-3-hydroxyphenyl)-1,2,4-oxadiazol-3-yl)methanone], with 15.8 µM; and `O=C(c1ccc(-c2cc(F)c(F)c(O)c2F)s1)N1CC[C@H](c2ccccc2)C1` [Example 33, (R)-(3-Phenylpyrrolidin-1-yl)(5-(2,4,5-trifluoro-3-hydroxyphenyl)thiophen-2-yl)methanone], with greater than 50 µM; and `C[C@@H]1CC[C@H](C)N1C(=O)c1noc(-c2cc(F)c(F)c(O)c2F)n1` [Example 38, ((2R,5S)-2,5-Dimethylpyrrolidin-1-yl)(5-(2,4,5-trifluoro-3-hydroxyphenyl)-1,2,4-oxadiazol-3-yl)methanone], with 8.7 µM.
For `O=C(c1noc(-c2cc(F)c(F)c(O)c2F)n1)N1CCOC2CCCC21` (centres unmarked) [Example 41, (Hexahydrocyclopenta[b][1,4]oxazin-4(4aH)-yl)(5-(2,4,5-trifluoro-3-hydroxyphenyl)-1,2,4-oxadiazol-3-yl)methanone], the half-maximal inhibitory concentration (IC50) was 49.6 µM.
As for `O=C(c1noc(-c2cc(F)c(F)c(O)c2F)n1)N1CC2CCC(C1)C2(F)F` [Example 43, (8,8-difluoro-3-azabicyclo[3.2.1]octan-3-yl)(5-(2,4,5-trifluoro-3-hydroxyphenyl)-1,2,4-oxadiazol-3-yl)methanone], the figure is 18.4 µM; as for `CC(C)CC1CN(C(=O)c2noc(-c3cc(F)c(F)c(O)c3F)n2)CCO1` (centres unmarked) [Example 47, (2-Isobutylmorpholino)(5-(2,4,5-trifluoro-3-hydroxyphenyl)-1,2,4-oxadiazol-3-yl)methanone], 2.1 µM; as for `C[C@@H]1CN(C(=O)c2noc(-c3cc(F)c(F)c(O)c3F)n2)[C@H](C)CO1` [Example 50, ((2R,5R)-2,5-Dimethylmorpholino)(5-(2,4,5-trifluoro-3-hydroxyphenyl)-1,2,4-oxadiazol-3-yl)methanone], 39.5 µM.
Turning to `O=C(c1noc(-c2cc(F)c(F)c(O)c2F)n1)N1CCN(CCCOc2ccc(F)cc2)CC1` [Example 57, (4-(3-(4-Fluorophenoxy)propyl)piperazin-1-yl)(5-(2,4,5-trifluoro-3-hydroxyphenyl)-1,2,4-oxadiazol-3-yl)methanone], the IC50 was greater than 50 µM.
Then `Cn1nnc(-c2cnc(N3CCN(C(=O)c4noc(-c5cc(F)c(F)c(O)c5F)n4)CC3)c(Cl)c2)n1` [Example 67, (4-(3-Chloro-5-(2-methyl-2H-tetrazol-5-yl)pyridin-2-yl)piperazin-1-yl)(5-(2,4,5-trifluoro-3-hydroxyphenyl)-1,2,4-oxadiazol-3-yl)methanone], with greater than 50 µM; and `O=C(c1noc(-c2cc(F)c(F)c(O)c2F)n1)N1CCN(CCOc2ccc(Br)cn2)CC1` [Example 69, (4-(2-((5-Bromopyridin-2-yl)oxy)ethyl)piperazin-1-yl)(5-(2,4,5-trifluoro-3-hydroxyphenyl)-1,2,4-oxadiazol-3-yl)methanone], with 21.9 µM.
As for `O=C(c1noc(-c2cc(F)c(F)c(O)c2F)n1)N1CC(c2ccc(F)cc2)C1` [Example 74, (3-(4-Fluorophenyl)azetidin-1-yl)(5-(2,4,5-trifluoro-3-hydroxyphenyl)-1,2,4-oxadiazol-3-yl)methanone], the figure is greater than 50 µM; as for `CCCC1CCN(C(=O)c2noc(-c3cc(F)c(F)c(O)c3F)n2)C1` (centres unmarked) [Example 76, (3-Propylpyrrolidin-1-yl)(5-(2,4,5-trifluoro-3-hydroxyphenyl)-1,2,4-oxadiazol-3-yl)methanone], 19.6 µM.
As for `C[C@@H]1CN(C(=O)c2noc(-c3cc(F)c(F)c(O)c3F)n2)C[C@@H](C)O1` [Example 88, ((2R,6R)-2,6-Dimethylmorpholino)(5-(2,4,5-trifluoro-3-hydroxyphenyl)-1,2,4-oxadiazol-3-yl)methanone], the figure is 41.7 µM; as for `O=C(c1noc(-c2cc(F)c(F)c(O)c2F)n1)N1CC[C@H](Oc2ccccc2)C1` [Example 93, (S)-(3-Phenoxypyrrolidin-1-yl)(5-(2,4,5-trifluoro-3-hydroxyphenyl)-1,2,4-oxadiazol-3-yl)methanone], 40.3 µM.
As to `O=C(c1noc(-c2cc(F)c(F)c(O)c2F)n1)N1CCCC(OCc2ccccc2)C1` (centres unmarked) [Example 94, (3-(Benzyloxy)piperidin-1-yl)(5-(2,4,5-trifluoro-3-hydroxyphenyl)-1,2,4-oxadiazol-3-yl)methanone], the IC50 is greater than 50 µM.
As for `O=C(c1noc(-c2cc(F)c(F)c(O)c2F)n1)N1CC[C@H](c2ccc(Cl)cc2)C1` [Example 95, (R)-(3-(4-Chlorophenyl)pyrrolidin-1-yl)(5-(2,4,5-trifluoro-3-hydroxyphenyl)-1,2,4-oxadiazol-3-yl)methanone], the figure is 17 µM; as for `O=C(c1noc(-c2cc(F)c(F)c(O)c2F)n1)N1CC[C@@H](Oc2ccccc2)C1` [Example 98, (R)-(3-Phenoxypyrrolidin-1-yl)(5-(2,4,5-trifluoro-3-hydroxyphenyl)-1,2,4-oxadiazol-3-yl)methanone], 40.2 µM.
Then `O=C(Nc1ccnn1C1CCCCC1)c1cc(-c2ccc(F)c(O)c2)on1` [Example 99, N-(1-Cyclohexyl-1H-pyrazol-5-yl)-5-(4-fluoro-3-hydroxyphenyl)isoxazole-3-carboxamide], with 38.9 µM; and `C[C@@H]1CN(C(=O)c2noc(-c3c(F)c(O)c(F)c(F)c3I)n2)C[C@H](C)O1` [Example 108, ((2S,6R)-2,6-Dimethylmorpholino)(5-(2,4,5-trifluoro-3-hydroxy-6-iodophenyl)-1,2,4-oxadiazol-3-yl)methanone], with greater than 50 µM; and `N#Cc1cccc2c1CCN(C(=O)c1noc(-c3c(F)c(O)c(F)c(F)c3I)n1)C2` [Example 109, 2-(5-(2,4,5-Trifluoro-3-hydroxy-6-iodophenyl)-1,2,4-oxadiazole-3-carbonyl)-1,2,3,4-tetrahydroisoquinoline-5-carbonitrile], with greater than 50 µM.
As for `O=C(c1noc(-c2cc(F)c(F)c(O)c2F)n1)N1CCO[C@H]2CCC[C@H]21` [Example 112, ((4aR,7aS)-Hexahydrocyclopenta[b][1,4]oxazin-4(4aH)-yl)(5-(2,4,5-trifluoro-3-hydroxyphenyl)-1,2,4-oxadiazol-3-yl)methanone], the figure is 32.4 µM.
On to `O=C(c1noc(-c2cc(F)c(F)c(O)c2F)n1)N1CCOC2(CC2)C1` [Example 118, (4-Oxa-7-azaspiro[2.5]octan-7-yl)(5-(2,4,5-trifluoro-3-hydroxyphenyl)-1,2,4-oxadiazol-3-yl)methanone], for which the half-inhibitory concentration (IC50) was greater than 50 µM.
Then `C[C@@H]1CN(C(=O)c2noc(-c3cc(F)c(F)c(O)c3F)n2)C[C@H](C)N1` [Example 119, ((3R,5S)-3,5-Dimethylpiperazin-1-yl)(5-(2,4,5-trifluoro-3-hydroxyphenyl)-1,2,4-oxadiazol-3-yl)methanone], with greater than 50 µM.
